In patent publication US12011506B2, “Combination and uses and treatments thereof” (priority 2017, dated 2024):
Values belong to the compound of their own block, whether it stands above or below them.

How the values were obtained:
[1] = Drug interaction trials: effect of dolutegravir on pharmacokinetics of coadministered drugs
Text: (§1) These recommendations are based on either drug interaction trials of individual components or predicted interactions due to the expected magnitude of interaction and potential for serious adverse events or loss of efficacy.

[2] = human, in vivo
[3] = human, in vivo; remark: listed apart in the source
[4] = Food effect pharmacokinetics: high-fat or moderate-fat meal versus fasted (Tables 20, 21)
Text: Cmax, AUC0-t, AUC0-∞ and AUClast are standard pharmacokinetic parameters that can be estimated manually or by using modelling software well known in the art, such as the Pharsight WinNonlin package using a non-compartmental model. The general basis for calculation of these quantities is well-known (e.g. see Rowland & Tozer (2010) Clinical Pharmacokinetics and Pharmacodynamics: Concepts and Applications ISBN 978-0781750097, or Jambhekar & Breen (2012) Basic Pharmacokinetics ISBN 978-0853699804). Typically the parameters will be assessed as the average (e.g. geometric or arithmetic mean) from within a group of at least 12 (and normally between 24 and 36) healthy human adults. Parameters should be measured in accordance with standards and practices which would be acceptable to a pharmaceutical regulatory agency such as FDA, EMA, MHLW, or WHO. The values may be based on measurements taken at appropriate intervals following the time of tablet ingestion, such as every hour, or at increasingly sparse sampling intervals, such as 1, 3, 5, 7, 9, 11, 13, 15, 20, and 24 hours after ingestion.

[5] = Dolutegravir oral pharmacokinetics (absorption, steady state, population pharmacokinetic analyses); type: in vivo, human
[6] = Excretion after a single oral dose of [14C] dolutegravir; type: in vivo, human; details: single oral dose of [14C] dolutegravir
[7] = molecular target: CYP3A4 (Homo sapiens, UniProt P08684); details: cited from earlier work
Sequence of CYP3A4 (P08684 whole entry): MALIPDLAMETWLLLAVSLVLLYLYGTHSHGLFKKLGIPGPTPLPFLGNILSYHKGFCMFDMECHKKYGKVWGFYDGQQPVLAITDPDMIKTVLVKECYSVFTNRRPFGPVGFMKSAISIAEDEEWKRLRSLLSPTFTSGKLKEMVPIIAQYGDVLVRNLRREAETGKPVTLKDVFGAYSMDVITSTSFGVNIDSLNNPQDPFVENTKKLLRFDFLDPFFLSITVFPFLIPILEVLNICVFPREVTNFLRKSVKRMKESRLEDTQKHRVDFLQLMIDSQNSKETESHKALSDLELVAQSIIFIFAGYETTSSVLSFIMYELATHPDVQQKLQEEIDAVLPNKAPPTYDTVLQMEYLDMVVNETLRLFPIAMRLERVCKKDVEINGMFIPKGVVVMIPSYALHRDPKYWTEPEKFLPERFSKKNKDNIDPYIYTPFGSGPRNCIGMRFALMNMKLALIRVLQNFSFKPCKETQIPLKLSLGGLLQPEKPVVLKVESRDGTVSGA

[8] = Drug interaction trials: effect of rilpivirine on pharmacokinetics of coadministered drugs; details: No Effect = 1.00
[9] = Established and other potentially significant drug interactions with JULUCA (effect on concentration); type: in vivo, human; details: based on drug interaction trials or predicted interactions
Text: as §1

[10] = Rilpivirine oral pharmacokinetics; type: in vivo, human
[11] = Excretion after single dose oral administration of [14C] rilpivirine; type: in vivo, human; details: single dose oral [14C] rilpivirine
Text: In feces, unchanged rilpivirine accounted for on average 25% of the administered dose. […] The pharmacokinetic properties of rilpivirine have been evaluated in adult healthy subjects and in adult antiretroviral treatment-naïve HIV-1-infected subjects. Exposure to rilpivirine was generally lower in HIV-1 infected subjects than in healthy subjects.

[12] = system: cytochrome P450 CYP3A; assay: Rilpivirine in vitro oxidative metabolism; type: in vitro ADME; details: in vitro experiments
[13] = Solubilities of non-micronized dolutegravir sodium in various solvents at 25° C.; type: physicochemical
[14] = Pre-dose concentrations of DTG and RPV at Weeks 4, 24 and 48 or withdrawal in participants switching to DTG + RPV; type: in vivo, human
Procedure: (§2) First set of participants (DTG 50 mg) received DIG 50 mg+RPV 25 mg together once daily, with a meal, in an open-label fashion up to Week 52 during early switch phase. Second set of participants (RPV 25 mg) also received DTG 50 mg+RPV 25 mg together once daily, with a meal, in an open-label fashion up to Week 52 during early switch phase.
(§3) First set of participants (DTG 50 mg) received DTG 50 mg+RPV 25 mg together once daily, with a meal, in an open-label fashion up to Week 52 during early switch phase. Second set of participants (RPV 25 mg) also received DTG 50 mg+RPV 25 mg together once daily, with a meal, in an open-label fashion up to Week 52 during early switch phase.

[15] = Pre-dose concentrations of DTG and RPV at Weeks 2, 4 and 8 in the first 20 participants who switch from EFV or NVP to DTG + RPV; type: in vivo, human
Procedure: as §2, §3

[16] = metformin 500 mg twice daily, dolutegravir 50 mg once daily
[17] = metformin 500 mg twice daily, dolutegravir 50 mg twice daily
[18] = high-fat meal compared with fasted conditions
[19] = moderate-fat meal compared with fasted conditions

Cmax of coadministered drug, geometric mean ratio with/without dolutegravir ([1]; No Effect = 1.00): 0.89
Cτ or C24 of coadministered drug, geometric mean ratio with/without dolutegravir ([1]; No Effect = 1.00): 0.93
Structure (SMILES): C#C[C@]1(O)CC[C@H]2[C@@H]3CCC4=CC(=NO)CC[C@@H]4[C@H]3CC[C@@]21CC (mixture of isomers) [Norelgestromin]

AUC of coadministered drug, geometric mean ratio with/without EDURANT [2]: 0.91
Cmax of coadministered drug, geometric mean ratio with/without EDURANT [2]: 0.97
Rilpivirine AUC, geometric mean ratio with/without coadministered drug [3]: 1.16
Rilpivirine Cmax, geometric mean ratio with/without coadministered drug [3]: 1.09
Rilpivirine Cmin, geometric mean ratio with/without coadministered drug [3]: 1.26
Structure (SMILES): CC(=O)Nc1ccc(O)cc1 [Acetaminophen]

Cmax of coadministered drug, geometric mean ratio with/without dolutegravir ([1]; No Effect = 1.00): 1.03
Cτ or C24 of coadministered drug, geometric mean ratio with/without dolutegravir ([1]; No Effect = 1.00): 1.06
Structure (SMILES): COC(=O)N[C@H](C(=O)N1CCC[C@H]1c1nc(-c2ccc(-c3ccc(-c4c[nH]c([C@@H]5CCCN5C(=O)[C@@H](NC(=O)OC)C(C)C)n4)cc3)cc2)c[nH]1)C(C)C [Daclatasvir]

Structure (SMILES): C[C@@H]1CCO[C@H]2Cn3cc(C(=O)NCc4ccc(F)cc4F)c(=O)c(O)c3C(=O)N12 [Dolutegravir, (4R,12aS)—N-[(2,4-difluorophenyl)methyl]-7-hydroxy-4-methyl-6,8-dioxo-3,4,12,12a-tetrahydro-2H-pyrido[5,6]pyrazino[2,6-b][1,3]oxazine-9-carboxamide]
Increase of AUC(0-∞) ([4]; human, in vivo): approximately 87%
Increase of Cmax ([4]; moderate- and high-fat meals each, compared with fasted conditions): approximately 75%
half-life ([5]; human, plasma, oral, population pharmacokinetic analyses, read-out: Terminal half-life (converted)): ~14 h
Time to pharmacokinetic steady state ([5]; once-daily dosing): ≤ 5 days
Apparent clearance (CL/F) ([5]; population pharmacokinetic analyses): 1.0 L per hour
Renal elimination of unchanged drug [6]: less than 1 % of the dose
Total oral dose excreted in the urine [6]: Thirty-one
Total oral dose excreted unchanged in the feces [6]: 53%
Extent as substrate of CYP3A4 [7]: about 15%

AUC of coadministered drug, geometric mean ratio with/without EDURANT [2]: 1.14
Cmax of coadministered drug, geometric mean ratio with/without EDURANT [2]: 1.17
Cmin of coadministered drug, geometric mean ratio with/without EDURANT [8]: 1.09
Cmax of coadministered drug, geometric mean ratio with/without dolutegravir ([1]; No Effect = 1.00): 0.99
Cτ or C24 of coadministered drug, geometric mean ratio with/without dolutegravir ([1]; No Effect = 1.00): 1.02
Structure (SMILES): C#C[C@]1(O)CC[C@H]2[C@@H]3CCc4cc(O)ccc4[C@H]3CC[C@@]21C [Ethinyl estradiol]

Effect on Concentration of the concomitant drug [9]: ↑Metformin
AUC of coadministered drug, geometric mean ratio with/without EDURANT [2]: 0.97
Cmax of coadministered drug, geometric mean ratio with/without EDURANT [2]: 1.02
AUC of coadministered drug, geometric mean ratio with/without dolutegravir [1, 16]: 1.79
Cmax of coadministered drug, geometric mean ratio with/without dolutegravir [1, 16]: 1.66
AUC of coadministered drug, geometric mean ratio with/without dolutegravir [1, 17]: 2.45
Cmax of coadministered drug, geometric mean ratio with/without dolutegravir [1, 17]: 2.11
Structure (SMILES): CN(C)C(=N)N=C(N)N [Metformin]

Effect on Concentration of Rilpivirine ([9]; concomitant drug with JULUCA): ↓Rilpivirine
AUC of coadministered drug, geometric mean ratio with/without EDURANT [2]: 0.86
Cmax of coadministered drug, geometric mean ratio with/without EDURANT [2]: 0.86
Rilpivirine AUC, geometric mean ratio with/without coadministered drug [3]: 0.60
Rilpivirine Cmax, geometric mean ratio with/without coadministered drug [3]: 0.60
Rilpivirine Cmin, geometric mean ratio with/without coadministered drug [3]: 0.67
Structure (SMILES): COc1ccc2[nH]c([S+]([O-])Cc3ncc(C)c(OC)c3C)nc2c1 (centres unmarked) [Omeprazole]

Increase of AUC(0-∞) [4, 18]: 72%
Increase of Cmax [4, 18]: 117%
Increase of AUC(0-∞) [4, 19]: 57%
Increase of Cmax [4, 19]: 89%
half-life ([10]; human, in vivo, oral, read-out: Terminal elimination half-life (converted)): ~50 h
Exposures lower than when taken with a meal ([10]; taken with only a protein-rich nutritional drink): 50%
Unchanged rilpivirine in urine [11]: < 1 % of dose
Radioactivity retrieved in feces ([11]; on average): 85%
Radioactivity retrieved in urine ([11]; on average): 6.1%
Unchanged rilpivirine in feces ([11]; on average): 25 % of the administered dose
Metabolic pathway [12]: primarily metabolized by CYP3A
Structure (SMILES): Cc1cc(/C=C/C#N)cc(C)c1Nc1ccnc(Nc2ccc(C#N)cc2)n1 [Rilpivirine, 4-[[4-[[4-[(E)-2-cyanoethenyl]-2,6-dimethylphenyl]amino]-2-pyrimidinyl]amino]benzonitrile]
Metabolic pathway ([12]; listed as rilpivirine): primarily undergoes oxidative metabolism mediated by the cytochrome P450 CYP3A system

AUC of coadministered drug, geometric mean ratio with/without EDURANT [2]: 0.97
Cmax of coadministered drug, geometric mean ratio with/without EDURANT [2]: 0.93
Rilpivirine AUC, geometric mean ratio with/without coadministered drug [3]: 0.98
Rilpivirine Cmax, geometric mean ratio with/without coadministered drug [3]: 0.92
Rilpivirine Cmin, geometric mean ratio with/without coadministered drug [3]: 1.04
Structure (SMILES): CCCc1nn(C)c2c(=O)[nH]c(-c3cc(S(=O)(=O)N4CCN(C)CC4)ccc3OCC)nc12 [Sildenafil]

Structure (SMILES): C[C@@H]1CCO[C@H]2Cn3cc(C(=O)NCc4ccc(F)cc4F)c(=O)c([O-])c3C(=O)N12.[Na+] [dolutegravir sodium, sodium (4R,12aS)-9-{[(2,4-difluorophenyl)methyl]carbamoyl}-4-methyl-6,8-dioxo-3,4,6,8,12,12a-hexahydro-2H-pyrido[1′,2′:4,5]pyrazino[2,1-b][1,3]oxazin-7-olate]
Descriptor (solubility) ([13]; FaSSIF, pH 6.5, 25° C.): Very slightly soluble
Descriptor (solubility) ([13]; FaSSIF, pH 6.5, 25° C., listed as Non-micronized dolutegravir sodium): very slightly soluble
Descriptor (solubility) ([13]; FeSSIF, pH 5.0, 25° C.): Very slightly soluble
Descriptor (solubility) ([13]; FeSSIF, pH 5.0, 25° C., listed as Non-micronized dolutegravir sodium): very slightly soluble
Descriptor (solubility) ([13]; SGF, pH 1.2, 25° C.): Practically insoluble
Descriptor (solubility) ([13]; SGF, pH 1.2, 25° C., listed as Non-micronized dolutegravir sodium): practically insoluble
Descriptor (solubility) ([13]; Water, solution pH 10.1, 25° C.): Slightly soluble
Descriptor (solubility) ([13]; Water, solution pH 10.1, 25° C., listed as Dolutegravir sodium): slightly soluble
solubility at 8 h ([13]; simulated gastric fluid, thermodynamic from solid, SGF, pH 1.2, 25° C., 8 hours): 21 µg/mL
solubility at 4 h ([13]; thermodynamic from solid, FaSSIF, pH 6.5, 25° C., 4 hours): 239 µg/mL
solubility at 4 h ([13]; thermodynamic from solid, FeSSIF, pH 5.0, 25° C., 4 hours): 170 µg/mL
solubility at 4 h ([13]; thermodynamic from solid, Water, solution pH 10.1, 25° C., equilibrium after 4 hours): 3180 µg/mL
Pre-dose concentration, Mean ± Standard Deviation ([14]; Example 3 (Table 10), Week 4): 1581.06 ± 1146.860 µg/L
Pre-dose concentration, Mean ± Standard Deviation ([14]; Example 3 (Table 10), Week 24): 1835.68 ± 1120.539 µg/L
Pre-dose concentration, Mean ± Standard Deviation ([14]; Example 3 (Table 10), Week 48): 1915.11 ± 1304.238 µg/L
Pre-dose concentration, Mean ± Standard Deviation ([14]; Example 5 (Table 13), Week 4): 1578.88 ± 1170.967 µg/L
Pre-dose concentration, Mean ± Standard Deviation ([14]; Example 5 (Table 13), Week 24): 1447.23 ± 917.677 µg/L
Pre-dose concentration, Mean ± Standard Deviation ([14]; Example 5 (Table 13), Week 48): 1384.36 ± 889.829 µg/L
Pre-dose concentration, Mean ± Standard Deviation ([15]; Example 3 (Table 10), Week 2): 821.25 ± 574.607 µg/L
Pre-dose concentration, Mean ± Standard Deviation ([15]; Example 3 (Table 10), Week 4): 994.00 ± 581.201 µg/L
Pre-dose concentration, Mean ± Standard Deviation ([15]; Example 3 (Table 10), Week 8): 1561.34 ± 1096.381 µg/L
Pre-dose concentration, Mean ± Standard Deviation ([15]; Example 5 (Table 13), Week 2): 834.58 ± 639.622 µg/L
Pre-dose concentration, Mean ± Standard Deviation ([15]; Example 5 (Table 13), Week 4): 1218.23 ± 842.703 µg/L
Pre-dose concentration, Mean ± Standard Deviation ([15]; Example 5 (Table 13), Week 8): 1472.50 ± 818.774 µg/L
